Where a name gives a salt, the structure may show the parent alone.
Molecular target: GST tagged IRAK4 (Homo sapiens (Human), UniProt Q9NWZ3)
Experiment: IRAK4 Kinase Assay (IMAP fluorescence polarization)
Type: biochemical
Details: 0.5 nM GST tagged IRAK4, 100 μM ATP, 30 minutes at 25° C.
Summary of the method: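 Reactions contained 0.5 nM GST-IRAK4, 100 nM fluorescent peptide substrate and 100 μM ATP in 10 mM Tris-HCl pH 7.2 with 1 mM MgCl2, and were started with ATP. After 30 minutes at 25° C they were stopped with IMAP reagent. Substrate phosphorylation was read as the change in fluorescence polarization.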

Chain of GST tagged IRAK4 (Q9NWZ3 whole entry): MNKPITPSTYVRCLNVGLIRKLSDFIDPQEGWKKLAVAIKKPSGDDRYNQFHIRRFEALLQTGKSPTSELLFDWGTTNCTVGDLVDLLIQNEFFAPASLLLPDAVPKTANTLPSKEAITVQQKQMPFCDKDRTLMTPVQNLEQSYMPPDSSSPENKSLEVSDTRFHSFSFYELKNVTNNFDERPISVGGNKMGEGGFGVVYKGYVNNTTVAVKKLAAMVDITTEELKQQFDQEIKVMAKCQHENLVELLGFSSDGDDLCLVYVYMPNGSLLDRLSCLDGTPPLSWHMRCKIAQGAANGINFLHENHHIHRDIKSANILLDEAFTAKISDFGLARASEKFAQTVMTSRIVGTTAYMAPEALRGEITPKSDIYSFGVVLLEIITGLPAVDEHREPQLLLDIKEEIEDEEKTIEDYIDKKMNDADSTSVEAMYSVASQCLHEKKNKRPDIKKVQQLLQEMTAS

Compound	IC50
N[C@@H]1[C@H](Nc2ncc3ccc(C(=O)Nc4ccsc4C(F)(F)F)n3n2)CCCC1(F)F [Example 95, 2-{[(1R,2R)-2-amino-3,3-difluorocyclohexyl]amino}-N-[2-(trifluoromethyl)thiophen-3-yl]pyrrolo[2,1-f][1,2,4]triazine-7-carboxamide trifluoroacetate]	4700 nM
Cn1cc(NC(=O)c2ccc3cnc(N[C@H]4CNC[C@H](F)C4)nn23)c(C(F)F)n1 [Example 165, N-[3-(difluoromethyl)-1-methyl-1H-pyrazol-4-yl]-2-{[(3R,5R)-5-fluoropiperidin-3-yl]amino}pyrrolo[2,1-f][1,2,4]triazine-7-carboxamide trifluoroacetate]	1 nM
N[C@H]1CCCC[C@H]1Nc1ncc2ccc(C(=O)Nc3cnn(CCO)c3)n2n1 [Example 167, 2-{[(1R,2S)-2-aminocyclohexyl]amino}-N-[1-(2-hydroxyethyl)-1H-pyrazol-4-yl]pyrrolo[2,1-f][1,2,4]triazine-7-carboxamide trifluoroacetate]	178 nM
Cn1cc(NC(=O)c2ccc3cnc(N4CCC[C@@H](N)C4)nn23)c(C#N)n1 [Example 125, 2-[(3R)-3-aminopiperidin-1-yl]-N-(3-cyano-1-methyl-1H-pyrazol-4-yl)pyrrolo[2,1-f][1,2,4]triazine-7-carboxamide trifluoroacetate]	1 nM
Cn1cc(NC(=O)c2ccc3cnc(N4C[C@H](N)C[C@@H](F)C4)nn23)c(C(F)F)n1 [Example 156, 2-[(3R,5R)-3-amino-5-fluoropiperidin-1-yl]-N-[3-(difluoromethyl)-1-methyl-1H-pyrazol-4-yl]pyrrolo[2,1-f][1,2,4]triazine-7-carboxamide trifluoroacetate]	0.5 nM
Cn1cc(NC(=O)c2ccc3cnc(N[C@@H]4CCCC(F)(F)[C@@H]4N)nn23)c(C(F)F)n1 [Example 92, 2-{[(1R,2R)-2-amino-3,3-difluorocyclohexyl]amino}-N-[3-(difluoromethyl)-1-methyl-1H-pyrazol-4-yl]pyrrolo[2,1-f][1,2,4]triazine-7-carboxamide trifluoroacetate]	46 nM
O=C(Nc1ccccc1Cl)c1ccc2cnc(N3C[C@H]4CC[C@@H]3CN4)nn12 (single isomer, unassigned) [Example 55, N-(2-chlorophenyl)-2-[(1S,4S)- or (1R,4R)-2,5-diazabicyclo[2.2.2]oct-2-yl]pyrrolo[2,1-f][1,2,4]triazine-7-carboxamide trifluoroacetate]	557 nM
Cn1cc(NC(=O)c2ccc3cnc(N[C@@H]4CCCCNC4)nn23)c(C(F)(F)F)n1 (single isomer, unassigned) [Example 72, 2-[(3S)- or (3R)-azepan-3-ylamino]-N-[1-methyl-3-(trifluoromethyl)-1H-pyrazol-4-yl]pyrrolo[2,1-f][1,2,4]triazine-7-carboxamide trifluoroacetate]	4 nM
N#Cc1cscc1NC(=O)c1ccc2cnc(N3CCC[C@@H](N)C3)nn12 [Example 144, 2-[(3R)-3-aminopiperidin-1-yl]-N-(4-cyanothiophen-3-yl)pyrrolo[2,1-f][1,2,4]triazine-7-carboxamide trifluoroacetate]	18 nM
